Assay [1] has as its target T1, Phospho-EGFR (Tyr1068) in H1975 cells (Homo sapiens, UniProt P00533, L858R/T790M).
T1 construct: host or cells: H1975
Description: HTRF pEGFR/total EGFR in H1975 cells. In kind it is cell-based. The settings on record: ratio pEGFR/total EGFR, compound 3 hours. In short, it runs like this: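 Readout is the phospho-EGFR (Tyr1068) to total EGFR HTRF ratio, expressed relative to 0 μM control. Adhered H1975 cells were exposed to compound for 3 hours at 0.1% DMSO, duplicate wells, then lysed for 30 min at room temperature before two-wavelength fluorescence reading.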

The target in assay [2] is T2, Phospho-EGFR (Tyr1068) in H1975 C797S cells (CRISPR-edited EGFR C797S) (Homo sapiens, UniProt P00533, C797S/L858R/T790M).
T2 construct: host or cells: H1975 C797S (CRISPR-edited)
Description: HTRF pEGFR/total EGFR in H1975 C797S cells. It is filed as cell-based. The conditions noted are these: ratio pEGFR/total EGFR, compound 3 hours. The essentials: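 Readout is the HTRF-measured Tyr1068 phospho-EGFR to total EGFR ratio, normalised to the 0 μM control as percent. Preceding this, CRISPR-edited H1975 C797S cells, plated 24 h earlier, were exposed 3 h to duplicate compound doses in medium with 0.1% DMSO, then lysed on a shaker.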

For assay [3], the target named is T3, Phospho-EGFR (Tyr1068) in A431 cells (Homo sapiens, UniProt P00533).
T3 construct: endogenous in cells; host or cells: A431
Description: HTRF pEGFR/total EGFR in A431 cells with EGF stimulation. It is filed as cell-based. The settings on record: ratio pEGFR/total EGFR, compound 2.5 hours then 100 ng/ml EGF 30 mins. The essentials:
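Values are pEGFR(Tyr1068)/total EGFR HTRF ratios (665/620 nm) given as percent of the 0 μM control. Adhered A431 cells (20,000 per well, 24 h) had 2.5 h compound pretreatment in 0.1% DMSO, then 30 min of 100 ng/ml EGF before lysis.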
In general terms: In TR-FRET formats the signal depends on donor and acceptor labels being close together.

The target in assay [4] is CtermHisTag-mEGFR Wild type (Homo sapiens, UniProt P00533). Kind of assay: biochemical.

Structures are written as SMILES. Some results are limits rather than exact numbers.

T2 sequence (P00533 25-1210 T790M/C797S/L858R): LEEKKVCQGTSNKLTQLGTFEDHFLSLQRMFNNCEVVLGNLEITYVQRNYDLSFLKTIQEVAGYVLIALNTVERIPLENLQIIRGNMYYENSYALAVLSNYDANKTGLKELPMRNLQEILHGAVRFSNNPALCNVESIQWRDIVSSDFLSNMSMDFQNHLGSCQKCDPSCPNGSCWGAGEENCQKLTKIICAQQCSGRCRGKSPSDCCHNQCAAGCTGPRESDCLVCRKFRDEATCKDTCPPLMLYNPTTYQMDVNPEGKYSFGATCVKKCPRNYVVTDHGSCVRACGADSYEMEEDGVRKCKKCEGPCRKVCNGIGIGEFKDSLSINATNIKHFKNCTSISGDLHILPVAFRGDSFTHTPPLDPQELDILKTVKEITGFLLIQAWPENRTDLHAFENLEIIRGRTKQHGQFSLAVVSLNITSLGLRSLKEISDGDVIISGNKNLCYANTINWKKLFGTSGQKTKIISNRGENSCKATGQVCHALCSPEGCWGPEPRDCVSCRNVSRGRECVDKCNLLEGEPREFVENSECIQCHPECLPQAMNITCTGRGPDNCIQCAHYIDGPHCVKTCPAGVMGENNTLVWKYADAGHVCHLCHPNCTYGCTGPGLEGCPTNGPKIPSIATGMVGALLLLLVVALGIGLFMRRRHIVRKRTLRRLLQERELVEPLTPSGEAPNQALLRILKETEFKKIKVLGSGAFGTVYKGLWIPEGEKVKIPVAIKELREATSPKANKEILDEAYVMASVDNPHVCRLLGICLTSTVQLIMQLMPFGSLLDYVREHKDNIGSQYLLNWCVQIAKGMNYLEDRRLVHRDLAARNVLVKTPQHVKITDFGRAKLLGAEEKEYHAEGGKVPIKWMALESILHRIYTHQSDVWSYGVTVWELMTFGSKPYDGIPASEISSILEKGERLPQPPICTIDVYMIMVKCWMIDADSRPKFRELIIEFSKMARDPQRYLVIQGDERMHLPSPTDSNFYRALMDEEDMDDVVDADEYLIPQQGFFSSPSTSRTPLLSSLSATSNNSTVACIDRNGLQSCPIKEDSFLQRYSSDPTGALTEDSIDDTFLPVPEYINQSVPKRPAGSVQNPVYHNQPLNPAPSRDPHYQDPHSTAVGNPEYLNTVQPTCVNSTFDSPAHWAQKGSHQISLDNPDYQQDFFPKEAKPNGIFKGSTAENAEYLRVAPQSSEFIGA
T1 sequence (P00533 25-1210 T790M/L858R): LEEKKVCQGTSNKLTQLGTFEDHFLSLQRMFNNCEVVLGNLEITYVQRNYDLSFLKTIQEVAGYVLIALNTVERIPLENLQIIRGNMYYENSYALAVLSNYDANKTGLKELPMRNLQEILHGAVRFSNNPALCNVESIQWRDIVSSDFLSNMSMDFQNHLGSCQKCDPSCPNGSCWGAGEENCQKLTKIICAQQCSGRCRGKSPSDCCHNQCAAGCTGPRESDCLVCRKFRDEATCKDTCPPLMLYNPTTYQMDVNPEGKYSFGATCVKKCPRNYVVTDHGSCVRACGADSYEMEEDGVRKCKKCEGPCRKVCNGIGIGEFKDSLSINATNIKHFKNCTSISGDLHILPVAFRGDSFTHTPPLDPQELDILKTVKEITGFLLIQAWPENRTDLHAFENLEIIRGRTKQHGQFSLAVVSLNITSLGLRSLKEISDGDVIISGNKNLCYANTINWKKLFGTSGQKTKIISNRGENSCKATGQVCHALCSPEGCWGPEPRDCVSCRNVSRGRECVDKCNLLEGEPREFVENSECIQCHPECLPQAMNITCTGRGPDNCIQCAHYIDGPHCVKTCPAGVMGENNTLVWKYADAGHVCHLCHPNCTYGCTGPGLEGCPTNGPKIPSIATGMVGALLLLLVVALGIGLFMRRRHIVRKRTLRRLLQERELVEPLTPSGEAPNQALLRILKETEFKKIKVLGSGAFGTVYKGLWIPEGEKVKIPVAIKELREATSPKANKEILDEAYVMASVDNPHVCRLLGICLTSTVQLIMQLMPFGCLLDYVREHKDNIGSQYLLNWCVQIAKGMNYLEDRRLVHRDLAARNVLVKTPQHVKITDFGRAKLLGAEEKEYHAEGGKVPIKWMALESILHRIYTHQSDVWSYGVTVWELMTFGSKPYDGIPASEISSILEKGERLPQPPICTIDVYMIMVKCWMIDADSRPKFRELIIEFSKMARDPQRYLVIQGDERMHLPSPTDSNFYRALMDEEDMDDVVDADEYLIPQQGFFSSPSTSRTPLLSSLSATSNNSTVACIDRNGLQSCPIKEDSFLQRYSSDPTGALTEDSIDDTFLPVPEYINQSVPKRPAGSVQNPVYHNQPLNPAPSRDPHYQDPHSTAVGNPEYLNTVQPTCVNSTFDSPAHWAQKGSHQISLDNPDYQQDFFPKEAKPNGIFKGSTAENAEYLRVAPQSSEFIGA
T3 sequence (P00533 25-1210): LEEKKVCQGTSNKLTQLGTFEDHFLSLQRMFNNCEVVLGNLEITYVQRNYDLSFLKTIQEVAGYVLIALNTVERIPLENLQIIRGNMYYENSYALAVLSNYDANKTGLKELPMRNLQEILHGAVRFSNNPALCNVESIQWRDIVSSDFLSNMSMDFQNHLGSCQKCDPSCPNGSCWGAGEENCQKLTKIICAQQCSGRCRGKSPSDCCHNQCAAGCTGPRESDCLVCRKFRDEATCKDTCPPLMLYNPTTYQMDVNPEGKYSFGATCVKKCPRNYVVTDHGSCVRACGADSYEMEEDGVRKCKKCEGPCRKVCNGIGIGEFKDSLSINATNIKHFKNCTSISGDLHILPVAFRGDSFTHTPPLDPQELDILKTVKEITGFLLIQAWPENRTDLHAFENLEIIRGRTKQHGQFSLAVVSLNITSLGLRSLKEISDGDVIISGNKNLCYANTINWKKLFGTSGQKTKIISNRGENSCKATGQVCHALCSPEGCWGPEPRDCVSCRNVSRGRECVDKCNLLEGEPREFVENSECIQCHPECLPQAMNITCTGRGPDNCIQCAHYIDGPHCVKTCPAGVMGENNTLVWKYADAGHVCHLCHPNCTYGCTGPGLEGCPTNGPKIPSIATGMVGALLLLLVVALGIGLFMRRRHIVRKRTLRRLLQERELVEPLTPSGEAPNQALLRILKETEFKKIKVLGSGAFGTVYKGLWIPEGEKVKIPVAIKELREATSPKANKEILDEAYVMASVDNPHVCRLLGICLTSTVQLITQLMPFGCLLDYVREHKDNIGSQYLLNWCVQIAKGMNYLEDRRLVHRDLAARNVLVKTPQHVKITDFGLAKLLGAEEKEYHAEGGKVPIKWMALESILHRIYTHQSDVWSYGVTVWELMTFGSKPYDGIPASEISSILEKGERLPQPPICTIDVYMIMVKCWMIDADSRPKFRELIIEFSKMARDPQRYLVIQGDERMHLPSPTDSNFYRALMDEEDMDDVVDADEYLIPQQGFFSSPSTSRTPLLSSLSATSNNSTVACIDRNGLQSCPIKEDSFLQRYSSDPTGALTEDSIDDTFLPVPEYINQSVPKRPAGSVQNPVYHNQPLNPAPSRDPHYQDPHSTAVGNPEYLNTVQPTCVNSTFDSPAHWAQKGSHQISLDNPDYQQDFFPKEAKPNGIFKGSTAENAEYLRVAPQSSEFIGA
Sequence of CtermHisTag-mEGFR Wild type (P00533 whole entry): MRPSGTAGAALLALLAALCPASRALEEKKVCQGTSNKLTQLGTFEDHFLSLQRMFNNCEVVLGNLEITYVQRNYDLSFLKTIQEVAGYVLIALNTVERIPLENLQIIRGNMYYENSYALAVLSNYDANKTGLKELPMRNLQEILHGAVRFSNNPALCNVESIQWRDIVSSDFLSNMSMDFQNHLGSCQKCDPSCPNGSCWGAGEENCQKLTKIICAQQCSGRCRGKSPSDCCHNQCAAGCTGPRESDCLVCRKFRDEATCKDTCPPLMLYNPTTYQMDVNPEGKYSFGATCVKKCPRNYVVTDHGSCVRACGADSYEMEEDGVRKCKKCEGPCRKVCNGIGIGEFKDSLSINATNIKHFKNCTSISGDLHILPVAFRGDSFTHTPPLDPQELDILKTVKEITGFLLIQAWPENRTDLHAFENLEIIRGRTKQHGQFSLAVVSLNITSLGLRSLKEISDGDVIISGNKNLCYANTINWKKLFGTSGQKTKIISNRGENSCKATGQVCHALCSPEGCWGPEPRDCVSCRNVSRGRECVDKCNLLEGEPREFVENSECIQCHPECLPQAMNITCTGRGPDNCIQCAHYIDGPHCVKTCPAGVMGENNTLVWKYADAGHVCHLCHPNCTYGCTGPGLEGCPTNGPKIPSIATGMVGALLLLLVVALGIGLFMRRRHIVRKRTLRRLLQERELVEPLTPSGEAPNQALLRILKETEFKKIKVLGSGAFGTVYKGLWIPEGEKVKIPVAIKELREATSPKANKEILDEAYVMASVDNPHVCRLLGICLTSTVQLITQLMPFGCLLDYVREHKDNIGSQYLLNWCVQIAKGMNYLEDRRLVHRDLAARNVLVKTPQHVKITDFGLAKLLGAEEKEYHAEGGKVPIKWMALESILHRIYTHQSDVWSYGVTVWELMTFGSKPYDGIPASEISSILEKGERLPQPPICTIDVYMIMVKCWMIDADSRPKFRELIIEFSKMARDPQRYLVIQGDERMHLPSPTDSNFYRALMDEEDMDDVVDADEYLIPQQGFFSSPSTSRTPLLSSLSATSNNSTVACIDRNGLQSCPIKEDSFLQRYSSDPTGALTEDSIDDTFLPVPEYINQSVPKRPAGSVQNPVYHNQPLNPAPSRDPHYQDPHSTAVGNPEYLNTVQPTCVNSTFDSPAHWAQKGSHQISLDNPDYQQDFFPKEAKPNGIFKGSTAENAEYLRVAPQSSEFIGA

`C#Cc1cc(=O)n(C2CCNC2)c2nc(Nc3ccc(N4CCN(C)CC4)cc3)ncc12` (stereo not drawn) [Example 106, 5-ethynyl-2-{[4-(4-methylpiperazin-1-yl)phenyl]amino}-8-(pyrrolidin-3-yl)pyrido[2,3-]pyrimidin-7-one]: the IC50 (as a rule, the concentration that inhibits the measured activity by half) in assay [1] is 1 to 3 µM; in assay [2], 1 to 3 µM; in assay [3], > 3 µM; in assay [4], > 10 µM.

For `C#Cc1cc(=O)n(C2CCN(C)C2)c2nc(Nc3ccc(N4CCN(C)CC4)cc3)ncc12` (stereo not drawn) [Example 107, 5-ethynyl-2-{[4-(4-methylpiperazin-1-yl)phenyl]amino}-8-(1-methylpyrrolidin-3-yl)pyrido[2,3-d]pyrimidin-7-one], the IC50 in assay [1] is > 3 µM; in assay [2], 1 to 3 µM; in assay [3], > 3 µM; in assay [4] it was > 10 µM.

Consider `C#Cc1cc(=O)n(C2CNC(=O)C2)c2nc(Nc3ccc(N4CCN(C)CC4)cc3)ncc12` (stereo not drawn) [Example 108, 4-(5-ethynyl-2-{[4-(4-methylpiperazin-1-yl)phenyl]amino}-7-oxopyrido[2,3-d]pyrimidin-8-yl)pyrrolidin-2-one], for which the IC50 in assay [1] was > 3 µM; in assay [2], > 3 µM; in assay [3], > 3 µM; in assay [4], > 10 µM.

With `C#Cc1c(C)c(=O)n(Cc2ccn[nH]2)c2nc(Nc3ccc(N4CCN(C)CC4)cc3)ncc12` [Example 109, 5-ethynyl-6-methyl-2-{[4-(4-methylpiperazin-1-yl)phenyl]amino}-8-(2H-pyrazol-3-ylmethyl)pyrido[2,3-d]pyrimidin-7-one], the IC50 in assay [1] is 1 to 3 µM; in assay [2], 1 to 3 µM; in assay [3], 1 to 3 µM; in assay [4], 1 to 10 µM.

As to `C#Cc1c(C)c(=O)n(Cc2ccn(C)n2)c2nc(Nc3ccc(N4CCN(C)CC4)cc3)ncc12` [Example 110, 5-ethynyl-6-methyl-2-{[4-(4-methylpiperazin-1-yl)phenyl]amino}-8-[(1-methylpyrazol-3-yl)methyl]pyrido[2,3-d]pyrimidin-7-one], the IC50 is 0.5 to 1 µM in assay [1], 1 to 3 µM in assay [2], 1 to 3 µM in assay [3] and < 1 µM in assay [4].

Take `C#Cc1c(C)c(=O)n(Cc2cnc[nH]2)c2nc(Nc3ccc(N4CCN(C)CC4)cc3)ncc12` [Example 111, 5-ethynyl-8-(3H-imidazol-4-ylmethyl)-6-methyl-2-{[4-(4-methylpiperazin-1-yl)phenyl]amino}pyrido[2,3-d]pyrimidin-7-one]: the IC50 in assay [1] was 1 to 3 µM; in assay [2], 1 to 3 µM; in assay [3] it was > 3 µM; in assay [4], 1 to 10 µM.

Turning to `C#Cc1c(C)c(=O)n(Cc2ccnn2C)c2nc(Nc3ccc(N4CCN(C)CC4)cc3)ncc12` [Example 112, 5-ethynyl-6-methyl-2-{[4-(4-methylpiperazin-1-yl)phenyl]amino}-8-[(2-methylpyrazol-3-yl)methyl]pyrido[2,3-d]pyrimidin-7-one], the IC50 is 1 to 3 µM in assay [1], 1 to 3 µM in assay [2], > 3 µM in assay [3] and 1 to 10 µM in assay [4].

Turning to `C#Cc1c(C)c(=O)n(Cc2ccno2)c2nc(Nc3ccc(N4CCN(C)CC4)cc3)ncc12` [Example 113, 5-ethynyl-6-methyl-2-{[4-(4-methylpiperazin-1-yl)phenyl]amino}-8-(1,2-oxazol-5-ylmethyl)pyrido[2,3-d]pyrimidin-7-one], the IC50 in assay [1] lay in the range of 1 to 3 µM; in assay [2] it was 1 to 3 µM; in assay [3], 1 to 3 µM; in assay [4], 1 to 10 µM.

On to `C#Cc1c(C)c(=O)n(Cc2ncco2)c2nc(Nc3ccc(N4CCN(C)CC4)cc3)ncc12` [Example 114, 5-ethynyl-6-methyl-2-{[4-(4-methylpiperazin-1-yl)phenyl]amino}-8-(1,3-oxazol-2-ylmethyl)pyrido[2,3-d]pyrimidin-7-one], for which the IC50 in assay [1] is 1 to 3 µM; in assay [2], 1 to 3 µM; in assay [3] it was 1 to 3 µM; in assay [4] it was < 1 µM.

`C#Cc1c(C)c(=O)n(Cc2cccnc2)c2nc(Nc3ccc(N4CCN(C)CC4)cc3)ncc12` [Example 115, 5-ethynyl-6-methyl-2-{[4-(4-methylpiperazin-1-yl)phenyl]amino}-8-(pyridin-3-ylmethyl)pyrido[2,3-d]pyrimidin-7-one]: the IC50 in assay [1] was 0.5 to 1 µM; in assay [2] it was 1 to 3 µM; in assay [3], 1 to 3 µM; in assay [4] it was < 1 µM.

Regarding `C#Cc1c(C)c(=O)n(Cc2cccnc2)c2nc(Nc3ccc(N4CCN(C)CC4)cc3)ncc12` [Example 116, 5-ethynyl-6-methyl-2-{[4-(4-methylpiperazin-1-yl)phenyl]amino}-8-(pyridin-3-ylmethyl)pyrido[2,3-d]pyrimidin-7-one], the IC50 in assay [1] is > 3 µM; in assay [2], > 3 µM; in assay [3], 1 to 3 µM; in assay [4], 1 to 10 µM.

Take `C#Cc1cc(=O)n(C2CC(=O)N(C)C2)c2nc(Nc3ccc(N4CCN(C)CC4)cc3)ncc12` (stereo not drawn) [Example 117, 4-(5-ethynyl-2-{[4-(4-methylpiperazin-1-yl)phenyl]amino}-7-oxopyrido[2,3-d]pyrimidin-8-yl)-1-methylpyrrolidin-2-one]: the IC50 was > 3 µM in assay [1], > 3 µM in assay [2], > 3 µM in assay [3] and > 10 µM in assay [4].

On to `C#Cc1cc(=O)n(Cc2ccn(C)n2)c2nc(Nc3ccc(N4CCN(C)CC4)cc3)ncc12` [Example 118, 5-ethynyl-2-{[4-(4-methylpiperazin-1-yl)phenyl]amino}-8-[(1-methylpyrazol-3-yl)methyl]pyrido[2,3-d]pyrimidin-7-one], for which the IC50 in assay [1] was < 0.5 µM; in assay [2] it was < 0.5 µM; in assay [3], 1 to 3 µM; in assay [4], < 1 µM.

As for `C#Cc1cc(=O)n(CC2CCNC2=O)c2nc(Nc3ccc(N4CCN(C)CC4)cc3)ncc12` (stereo not drawn) [Example 119, 3-[(5-ethynyl-2-{[4-(4-methylpiperazin-1-yl)phenyl]amino}-7-oxopyrido[2,3-d]pyrimidin-8-yl)methyl]pyrrolidin-2-one], the IC50 in assay [1] was 0.5 to 1 µM; in assay [2], 0.5 to 1 µM; in assay [3], > 3 µM; in assay [4], > 10 µM.

`C#Cc1cc(=O)[nH]c2nc(Nc3ccccc3OC)ncc12` [Example 120, 5-ethynyl-2-((2-methoxyphenyl)amino)pyrido[2,3-d]pyrimidin-7(8H)-one]: the IC50 in assay [1] is > 3 µM; in assay [2], > 3 µM; in assay [3], > 3 µM; in assay [4], 1 to 10 µM.

As for `C#Cc1c(-c2ccccc2Cl)c(=O)n(C)c2nc(Nc3ccc(N(C)CCN(C)C)cc3)ncc12` [Example 126], the IC50 in assay [1] is 1 to 3 µM; in assay [2], > 3 µM; in assay [3], 1 to 3 µM; in assay [4], < 1 µM.

In the case of `C#Cc1c(-c2ccccc2Cl)c(=O)n(C)c2nc(Nc3ccc(N4CCN(C)CC4)cc3OC)ncc12` [Example 127, 6-(2-chlorophenyl)-5-ethynyl-2-{[2-methoxy-4-(4-methylpiperazin-1-yl)phenyl]amino}-8-methylpyrido[2,3-d]pyrimidin-7-one], the IC50 in assay [1] was 0.5 to 1 µM; in assay [2], 1 to 3 µM; in assay [3] it was 0.5 to 1 µM; in assay [4], < 1 µM.

In the case of `C#Cc1c(-c2ccccc2Cl)c(=O)n(C)c2nc(Nc3ccc(N4CCN(C)CC4)cc3)ncc12` [Example 128, 6-(2-chlorophenyl)-5-ethynyl-8-methyl-2-{[4-(4-methylpiperazin-1-yl)phenyl]amino}pyrido[2,3-d]pyrimidin-7-one], the IC50 was 0.5 to 1 µM in assay [1], > 3 µM in assay [2], < 0.5 µM in assay [3] and < 1 µM in assay [4].

Consider `C#Cc1c(-c2ccccc2Cl)c(=O)n(C)c2nc(Nc3ccc(OCCN(C)C)cc3)ncc12` [Example 129, 6-(2-chlorophenyl)-2-({4-[2-(dimethylamino)ethoxy]phenyl}amino)-5-ethynyl-8-methylpyrido[2,3-d]pyrimidin-7-one], for which the IC50 in assay [1] is 0.5 to 1 µM; in assay [2] it was > 3 µM; in assay [3], 0.5 to 1 µM; in assay [4], < 1 µM.

`C#Cc1c(-c2ccccc2Cl)c(=O)n(C)c2nc(Nc3cccc(OC)c3)ncc12` [Example 131, 6-(2-chlorophenyl)-5-ethynyl-2-[(3-methoxyphenyl)amino]-8-methylpyrido[2,3-]pyrimidin-7-one]: the IC50 in assay [1] was 1 to 3 µM; in assay [2] it was > 3 µM; in assay [3] it was > 3 µM; in assay [4] it was 1 to 10 µM.

For the molecule `C#Cc1c(-c2ccccc2Cl)c(=O)n(C)c2nc(Nc3cccc(CO)c3)ncc12` [Example 132, 6-(2-chlorophenyl)-5-ethynyl-2-{[3-(hydroxymethyl)phenyl]amino}-8-methylpyrido[2,3-]pyrimidin-7-one], the IC50 in assay [1] was 0.5 to 1 µM; in assay [2], 1 to 3 µM; in assay [3], 1 to 3 µM; in assay [4], < 1 µM.

The values above are taken from patent US20260137703A1, “2-AMINO-PYRIDO[2,3-D]PYRIMIDIN-7(8H)-ONE AND 7-AMINO-1-PYRIMIDO[4,5-D]PYRIMIDIN-2(1 H)-ONE DERIVATIVES AS EGFR INHIBITORS FOR THE TREATMENT OF CANCER” (Cancer Research Technology Limited, priority 2022, published 2026).
